Like-named read-outs stand apart in the source and are kept apart here. Blank lines part the entries; values can stand above or below the molecule they belong to. Peptide text beside a SMILES is read from it.
Legend:
human ATIC = human ATIC (Homo sapiens, UniProt P31939); test: AICAR Tfase inhibition assay with human ATIC; assay type: biochemical
[1] = molecular target: T1, AICAR Tfase activity of avian ATIC (Gallus gallus, UniProt P31335); test: AICAR Tfase inhibition assay
T1 sequence (P31335 1-593): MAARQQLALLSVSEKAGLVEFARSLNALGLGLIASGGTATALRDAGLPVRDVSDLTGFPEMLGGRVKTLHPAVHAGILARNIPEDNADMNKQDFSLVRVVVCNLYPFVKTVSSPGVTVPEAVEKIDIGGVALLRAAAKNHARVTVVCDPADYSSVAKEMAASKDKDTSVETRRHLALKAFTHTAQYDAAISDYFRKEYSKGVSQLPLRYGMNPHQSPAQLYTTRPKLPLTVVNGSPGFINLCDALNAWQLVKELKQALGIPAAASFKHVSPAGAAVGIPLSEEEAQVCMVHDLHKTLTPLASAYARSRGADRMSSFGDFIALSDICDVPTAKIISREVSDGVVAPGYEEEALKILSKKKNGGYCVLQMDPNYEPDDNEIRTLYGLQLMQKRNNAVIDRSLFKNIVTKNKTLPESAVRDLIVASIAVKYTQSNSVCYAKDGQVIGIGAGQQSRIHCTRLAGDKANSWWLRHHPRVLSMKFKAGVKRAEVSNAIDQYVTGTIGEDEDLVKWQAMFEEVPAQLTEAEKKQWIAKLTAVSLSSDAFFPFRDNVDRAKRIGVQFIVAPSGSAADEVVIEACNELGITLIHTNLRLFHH

MCF-7 cells [2] = test: MTS-based cell proliferation; conditions: 48 hours after dosing
human ATIC homodimer = human ATIC homodimer (Homo sapiens, UniProt P31939); test: Size exclusion chromatography of ATIC monomer/dimer ratio; assay type: binding; conditions: 50 μM ATIC treated with 10 μM compound
MCF-7 cells [3] = test: Live-cell imaging; assay type: cell-based; conditions: MCF-7, 250 μM
[4] = molecular target: T2, AICAR Tfase activity of ATIC (Gallus gallus, UniProt P31335); test: AICAR Tfase inhibition in the presence of BSA; assay type: biochemical; conditions: compound at 10 μM and 50 μM; 1 mg/mL and 10 mg/mL BSA
T2 sequence (P31335 1-593): T1 sequence (P31335 1-593)

Chain of human ATIC (P31939 whole entry): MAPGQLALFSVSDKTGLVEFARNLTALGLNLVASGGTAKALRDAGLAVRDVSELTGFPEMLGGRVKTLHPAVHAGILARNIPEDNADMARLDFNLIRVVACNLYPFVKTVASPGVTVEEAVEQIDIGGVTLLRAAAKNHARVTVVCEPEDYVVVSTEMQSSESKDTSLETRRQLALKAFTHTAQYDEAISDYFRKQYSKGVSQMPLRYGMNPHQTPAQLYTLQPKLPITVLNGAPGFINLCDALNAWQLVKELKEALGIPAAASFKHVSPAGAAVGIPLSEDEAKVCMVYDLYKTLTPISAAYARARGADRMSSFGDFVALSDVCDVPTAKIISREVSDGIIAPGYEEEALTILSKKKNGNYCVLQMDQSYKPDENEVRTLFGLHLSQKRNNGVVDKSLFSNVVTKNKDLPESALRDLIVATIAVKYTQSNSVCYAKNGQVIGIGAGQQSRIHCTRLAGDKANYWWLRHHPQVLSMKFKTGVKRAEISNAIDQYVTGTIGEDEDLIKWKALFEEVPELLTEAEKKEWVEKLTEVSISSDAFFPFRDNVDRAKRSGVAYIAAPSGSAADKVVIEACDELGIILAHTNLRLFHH
Chain of human ATIC homodimer (P31939 whole entry): as above

- Ki with human ATIC compared to the avian enzyme (human ATIC): same Ki (within error)
Molecule: CC(C)[C@@H]1NC(=O)[C@H](CC(N)=O)NC(=O)[C@H](Cc2ccccc2)NC(=O)[C@H](Cc2ccc(O)cc2)NC(=O)[C@H](CCCNC(=N)N)NC(=O)[C@H](CS)NC1=O [Compound 1, cyclo-CRYFNV] (cyclo(RYFNVC))

- Ki [1]: 368 ± 29 µM
Molecule: CC(C)[C@@H]1NC(=O)[C@H](C)NC(=O)[C@H](Cc2ccccc2)NC(=O)[C@H](Cc2ccc(O)cc2)NC(=O)[C@H](CCCNC(=N)N)NC(=O)[C@H](CS)NC1=O [Compound 6, cyclo-CRYFAV] (cyclo(AVCRYF))

- fold loss of activity compared to cyclo-CRYFNV ([1]; from Ki values): 8 fold
Molecule: linear-CRYFNV [reference compound]

- Ki ([1]; Table 2, RY analogues, avian ATIC, 25 °C): 0.685 ± 0.035 µM
- fold improvement in activity compared to capped RY dimer 8 ([1]; from Ki values of Table 2): 120 fold
- ATIC species observed by size exclusion chromatography (human ATIC homodimer): presence of monomeric ATIC
- Ki with human ATIC compared to the avian enzyme (human ATIC): same Ki (within error)
Molecule: CCN(CC)C(=O)[C@H](Cc1ccc([N+](=O)[O-])cc1)NC(=O)[C@H](CCCNC(=N)N)NC(C)=O [Compound 14, Acetyl-Arg-CONH-Phe(4-NO2)-L-Diethylamide]
- inhibition of viability (MCF-7 cells [2]; MCF-7, 500 μM (maximum dose)): 40%
- effect on viability (MCF-7 cells [2]; MCF-7, 100, 250 or 500 μM): dose-dependent reduction in viability
- mechanism of effect on cell numbers (MCF-7 cells [3]; analysis of videos over 72 hours): reduction in cell division rates, rather than an increase in cell death
- reduction in proliferation compared to control-treated cells (MCF-7 cells [3]; time-lapse microscopy over 72 hours): 35%
- AICAR Tfase inhibition in presence of BSA [4]: continued to inhibit the reaction to a similar extent as observed in the absence of BSA

- Ki [1]: 651 ± 25 µM
Molecule: CC(C)[C@@H]1NC(=O)[C@H](CC(N)=O)NC(=O)[C@H](Cc2ccccc2)NC(=O)[C@H](Cc2ccc(O)cc2)NC(=O)[C@H](CCCNC(=N)N)NC(=O)[C@H](C)NC1=O [Compound 2, cyclo-ARYFNV] (cyclo(ARYFNV))

- Ki [1]: > 2500 µM
Molecule: CC(C)[C@@H]1NC(=O)[C@H](CC(N)=O)NC(=O)[C@H](Cc2ccccc2)NC(=O)[C@H](C)NC(=O)[C@H](CCCNC(=N)N)NC(=O)[C@H](CS)NC1=O [Compound 4, cyclo-CRAFNV] (cyclo(AFNVCR))

- Ki [1]: 38 ± 5 µM
Molecule: CC(C)[C@@H]1NC(=O)[C@H](CC(N)=O)NC(=O)[C@H](C)NC(=O)[C@H](Cc2ccc(O)cc2)NC(=O)[C@H](CCCNC(=N)N)NC(=O)[C@H](CS)NC1=O [Compound 5, cyclo-CRYANV] (cyclo(ANVCRY))

- Ki [1]: 252 ± 22 µM
Molecule: C[C@@H]1NC(=O)[C@H](CC(N)=O)NC(=O)[C@H](Cc2ccccc2)NC(=O)[C@H](Cc2ccc(O)cc2)NC(=O)[C@H](CCCNC(=N)N)NC(=O)[C@H](CS)NC1=O [Compound 7, cyclo-CRYFNA] (cyclo(ACRYFN))

- Ki [1]: > 2500 µM
Molecule: CC(C)[C@@H]1NC(=O)[C@H](CC(N)=O)NC(=O)[C@H](Cc2ccccc2)NC(=O)[C@H](Cc2ccc(O)cc2)NC(=O)[C@H](C)NC(=O)[C@H](CS)NC1=O [Compound 3, cyclo-CAYFNV] (cyclo(AYFNVC))
